This is an account of results in patent US10544110B2, “Small molecule inhibitors of the nuclear translocation of androgen receptor for the treatment of castration-resistant prostate cancer” (University of Pittsburgh-Of the Commonwealth System of …, priority 2013, dated 2020).

In one assay the test system is LNCaP xenograft tumors. Put plainly: LNCaP xenograft tumor growth. In kind it is in vivo. To be noted: castrated SCID mice, oral gavage 10 or 75 mg/kg or IP 10 mg/kg, started 2 weeks after castration. How it is done: FIG. 12 is a graph showing the effect of compound JJ-450 at indicated concentrations and administration route on LNCaP xenograft tumor volume. JJ-450 was administered 6 times, from Monday to Saturday, every week
LNCaP xenograft tumors were established in SCID mice by subcutaneous injection of 2×10^6 cells in Matrigel. Once the tumors reached ˜200 ul in volume, the mice were castrated and randomized into 4 groups: oral gavage of vehicle (n=6), oral gavage at 10 mg/kg (n=6), IP injection at 10 mg/kg (n=8), and oral gavage at 75 mg/kg (n=7) groups. Administration of JJ-450 was started 2 weeks after castration. Tumor volumes were measured twice every week. […] Error bars, SEM.

Another assay concerns 22Rv 1 xenograft tumors. Put plainly: 22Rv1 xenograft tumor growth. In kind it is in vivo. As to conditions: castrated SCID mice, daily IP 10 mg/kg and 75 mg/kg. How it is done: FIG. 11 is a graph showing the effect of compound JJ-450 at indicated concentrations on 22Rv 1 xenograft tumor volume. JJ-450 was injected i.p. daily.
22Rv 1 xenograft tumors were established in SCID mice by subcutaneous injection of 2×10^6 cells in Matrigel. Once the tumors reached ˜150 μL in volume, the mice were castrated and randomized into 3 groups for daily IP injection of vehicle (n=11), 10 mg/kg (n=11) and 75 mg/kg (n=11) groups. Injection of JJ-450 was initiated at time of castration. Tumor volumes were measured 3 times every week. […] Error bars, SEM.

The test system of assay [1] is AR transcriptional activity (PSA promoter activity). Put plainly: PSA luciferase assay in C4-2-PSA-rl cells (Dual-Glo luciferase system). As to conditions: C4-2-PSA-rl cells.
Protocol: C4-2-PSA-rl cells were seeded in 24-well plates such that they reached 75-80% cell monolayer density after 24 h. […] Each compound was tested in at least two independent experiments. Luciferase activity was assayed using the Dual-Luciferase® Reporter Assay System (Promega) using LMax II Microplate Reader (Molecular Devices). The luciferase assay results were acquired using SoftMax Pro5.45 software (Molecular Devices) and analyzed using GraphPad Prism. PSA6.1-luc activity was normalized to the Renilla luciferase activity. Relative luciferase activity was calculated as the quotient of androgen-induced PSA-firefly/Renilla luciferase activity. Since PSA promoter activity correlates to AR transcriptional activity, inhibition of AR will result in decreased PSA-luciferase activity.
Another assay relates to 22Rv1. Put plainly: Effectiveness against androgen-dependent prostate cancer cell line 22Rv1. In kind it is cell-based.

Take `Cc1ccc(Cl)cc1N1CCN(C(=O)[C@@H]2C[C@@H]2c2ccc(F)cc2)CC1` (racemic) [JJ-450, (4-(5-Chloro-2-methylphenyl)piperazin-1-yl)((1RS,2SR)-2-(4-fluorophenyl)cyclopropyl)-methanone]: in the assay on LNCaP xenograft tumors, the “LNCaP xenograft tumor growth (tumor volume)” value is reported as “significantly inhibited tumor growth”. The “22Rv1 xenograft tumor growth (tumor volume)” value in the assay with 22Rv 1 xenograft tumors is “significantly inhibited tumor growth”. Further, half-maximal inhibition in assay [1] (24 h, 24 h treatment, 1 nM R1881, mean and SD of 2-6 independent experiments) (IC50) required 2700 ± 1100 nM. For the same compound, the “activity in PSA luciferase assay (in words)” value in assay [1] (up to 25 μM) is “significantly more potent than 1”.

As for `CNC(=O)c1ccc(N2C(=S)N(c3ccc(C#N)c(C(F)(F)F)c3)C(=O)C2(C)C)cc1F` [MDV3100, enzalutamide], the “effectiveness against 22Rv1” value in the assay with 22Rv1 was “ineffective”.
